From patent US10780091B2, “TLR7 agonist maleate salt, crystalline forms C, D and E thereof, preparation methods and uses of maleate salt and crystalline forms” (CHIA TAI TIANQING PHARMACEUTICAL GROUP CO., LTD., priority 2016, dated 2020)

Experiment: Stability tests of the crystal forms (high temperature, high humidity, light)
Type: physicochemical
Details: general statement; tests at 60° C., 40° C./75% humidity, 5000 Lx described but data not given
Procedure: The crystal forms prepared in Examples 1-3 were tested in the accelerated test under high temperature conditions for stability in accordance with Guidelines for the Stability Test of Pharmaceutical Ingredients and Pharmaceutical Preparations (Chinese Pharmacopoeia 2010 Appendix XIXC).
The crystal forms C, D and E prepared in Examples 1-3 were placed in an open-clean container at 60° C., respectively. The samples were taken for test on day 10, day 20 and day 30, respectively. The results were compared with the initial test result on day 0.
The crystal forms prepared in Examples 1-3 were tested in the accelerated test under high humidity conditions for stability in accordance with Guidelines for the Stability Test of Pharmaceutical Ingredients and Pharmaceutical Preparations (Chinese Pharmacopoeia 2010 Appendix XIXC).
The crystal forms C, D and E prepared in Examples 1-3 were subjected to an accelerated test in a constant temperature and humidity vessel under the conditions of 40° C./75% humidity (open). The samples were taken for test on day 30, day 60 and day 90, respectively. The results were compared with the initial test result on day 0. […]

SMILES: CCCCOc1nc(N)c2[nH]cc(Cc3ccc(CN4CCCC4)cc3)c2n1.O=C(O)/C=C\C(=O)O [crystal form C, Maleate of 2-butoxy-7-(4-(pyrrolidin-1-ylmethyl)benzyl)-5H-pyrrolo[3,2-d]pyrimidin-4-amine]
- stability of the crystal form: good stability
